The text below walks through data of patent publication US9233961B2, “Compounds and compositions for the treatment of parasitic diseases” (Novartis AG, priority 2013, dated 2016).

Where two headings read alike, the source gives them in different places.

Test [1] deals with L. donovani HU3 strain in mouse peritoneal macrophages. Nature of the test: Assay for proliferation of Leishmania parasites in mouse peritoneal macrophages. Format: cell-based, Leishmania donovani. Particulars: Leishmania donovani, Peritoneal macrophage. Summed up:
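BALB/c peritoneal macrophages infected 24 h with L. donovani HU3 amastigotes taken from spleens of mice infected 9–11 weeks, then treated with compound for 5 days at 37° C, 5% CO2. Parasite nuclei counted by SYBR Green imaging after fixation; EC50 from percentage inhibition.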

Test [2] deals with Leishmania donovani axenic amastigote parasites. Nature of the test: Leishmania donovani axenic amastigote proliferation assay. Format: cell-based. The settings on record: read-out: L. donovani amastigotes EC50. Summed up: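 L. donovani axenic amastigotes (9600/well) in RPMI 1640 with 20% heat-inactivated FBS, folic acid, adenosine, glucose and 25 mM MES, pH 5.5, were incubated with compounds for 2 days at 37 °C, 5% CO2. Viability read by CellTiter-Glo luminescence; EC50 calculated.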

Test [3] deals with Trypanosoma brucei Lister 427 strain bloodstream form. In words: Assay for proliferation of kinetoplastid parasite Trypanosoma brucei. The format is cell-based. Particulars: read-out: T. brucei EC50. From the text: Assay for Proliferation of Kinetoplastid Parasite Trypanosoma brucei.
The proliferation is quantified by the addition of Cell Titer Glo (Promega®) a luminescent cell viability assay that measures the number of viable cells in culture based on the quantification of cellular ATP amount, which is an indicator of metabolically active cells.
The following assay illustrates the invention without in any way limiting the scope of the invention. This parasite proliferation assay measures the increase in parasite growth using an assay that measures ATP activity, Cell Titer Glo®.
Trypanosoma brucei Lister 427 strain is grown in HMI-9 Trypanosome media for T. brucei bloodstream form. 30 μl of HMI-9 media is dispensed into 384 well assay plates. 200 nl of compounds of the invention (in DMSO), including anti-trypanosome controls (Pentamidine and suramin), are then transferred into the assay plates, as well as DMSO alone to serve as a negative control for inhibition. Then 25 μl of a suspension of T. brucei culture in HMI-9 media is dispensed into the assay plates. The final concentration of parasites in culture corresponds to 1.7% of 0.5 uM ATP activity with Cell Titer Glo® in HMI-9 media. The plates are placed in a 37° C. incubator for 48 hours in an atmospheric environment containing 5% CO2. 40 μl of Cell Titer Glo® is dispensed into the plates. The plates are then read for luminescence. The percentage inhibition of 50%, EC50, is calculated for each compound.

The mark [4] stands for this setting: read-out: L. donavani Macrophage EC50.
Setting [5] is: Lister 427 bloodstream form, 48 hours.

For orientation: EC50 means the midpoint of the concentration-response curve.

For the compound `Cc1csc(C(=O)Nc2ccc(Cl)c(-c3nc4ncc(C)cc4[nH]3)c2)c1` [Compound 209], the EC50 amounted to 10.4 µM in test [1] (setting [4]), 7.9 µM in test [2] (axenic amastigotes in vitro) and 1.41 µM in test [3] (setting [5]).

For the compound `Cc1cnc2nc(-c3cc(Nc4cccc5c4CCN(S(C)(=O)=O)C5)ccc3Cl)[nH]c2c1` [Compound 261], the EC50 in test [1] (setting [4]) is over 50 µM; in test [2] (axenic amastigotes in vitro), over 25 µM; in test [3] (setting [5]), 15.9 µM.

For the compound `Cc1cnc2nc(-c3cc(NC(=O)Cc4ccc(F)cc4F)ccc3Cl)[nH]c2c1` [Compound 114], the EC50 in test [1] (setting [4]) is over 41.5 µM; in test [2] (axenic amastigotes in vitro), over 25 µM; in test [3] (setting [5]), over 11.9 µM.

Regarding `Cc1cnc2nc(-c3cc(NC(=O)COc4ccccc4)ccc3Cl)[nH]c2c1` [Compound 120], the figures for the EC50 in test [1] (setting [4]), in test [2] (axenic amastigotes in vitro) and in test [3] (setting [5]) were over 50 µM, over 25 µM and 10.5 µM, respectively.

On to `Cc1cnc2nc(-c3cc(NC(=O)c4ccc(S(C)(=O)=O)cc4Cl)ccc3Cl)[nH]c2c1` [Compound 110], for which the concentration for a half-maximal effect (EC50) in test [1] (setting [4]) was 23.8 µM; in test [2] (axenic amastigotes in vitro), over 25 µM; in test [3] (setting [5]), over 13.6 µM.

With `CN1CCOc2cc(-c3cnc4nc(-c5cc(NC(=O)c6ccco6)ccc5Cl)[nH]c4c3)ccc21` [Compound 72], the EC50 is 3.2 µM in test [1] (setting [4]), 0.67 µM in test [2] (axenic amastigotes in vitro) and 0.073 µM in test [3] (setting [5]).

`Cc1cnc2nc(-c3cc(NC(=O)Cc4ccc(OC(F)(F)F)cc4)ccc3Cl)[nH]c2c1` [Compound 121]: the EC50 is over 21.2 µM in test [1] (setting [4]), over 25 µM in test [2] (axenic amastigotes in vitro) and over 17.3 µM in test [3] (setting [5]).

For the compound `CN(C)CCOc1ccc(-c2cnc3nc(-c4cc(NC(=O)c5ccco5)ccc4Cl)[nH]c3c2)cc1` [Compound 69], the EC50 amounted to 2.74 µM in test [1] (setting [4]), 18.1 µM in test [2] (axenic amastigotes in vitro) and 0.1 µM in test [3] (setting [5]).

With `Cc1cnc2nc(-c3cc(NC(=O)C4(C)CNC4)ccc3Cl)[nH]c2c1` [Compound 200], the EC50 in test [1] (setting [4]) was over 50 µM; in test [2] (axenic amastigotes in vitro), over 25 µM; in test [3] (setting [5]), over 9.6 µM.

In the case of `O=C(Nc1ccc(Cl)c(-c2nc3ncc(-c4ccc(OCC5CC5)cc4)cc3[nH]2)c1)c1ccco1` [Compound 36], the EC50 in test [1] (setting [4]) is 2.27 µM; in test [2] (axenic amastigotes in vitro), 1.03 µM; in test [3] (setting [5]), 0.188 µM.

On to `Cc1cnc2nc(-c3cc(NC(=O)c4cncn4C)ccc3Cl)[nH]c2c1` [Compound 207], for which the EC50 in test [1] (setting [4]) was over 50 µM; in test [2] (axenic amastigotes in vitro), over 25 µM; in test [3] (setting [5]), over 25 µM.

For the compound `Cc1cnc2nc(-c3cc(NC(=O)Cn4cncn4)ccc3Cl)[nH]c2c1` [Compound 122], the EC50 was over 50 µM in test [1] (setting [4]), over 25 µM in test [2] (axenic amastigotes in vitro) and over 25 µM in test [3] (setting [5]).

Take `Cc1cnc2nc(-c3cc(NC(=O)c4oc(C)nc4C)ccc3Cl)[nH]c2c1` [Compound 139]: the EC50 stood at 25.8 µM in test [1] (setting [4]), 1.06 µM in test [2] (axenic amastigotes in vitro) and 0.33 µM in test [3] (setting [5]).

Turning to `Cc1cnc2nc(-c3cc(NC(=O)c4cccc(S(C)(=O)=O)c4)ccc3Cl)[nH]c2c1` [Compound 140], the EC50 is over 50 µM in test [1] (setting [4]), over 25 µM in test [2] (axenic amastigotes in vitro) and 6.8 µM in test [3] (setting [5]).

Turning to `Cc1cnc2nc(-c3cc(N4CCOCC4)ccc3Cl)[nH]c2c1` [Compound 257], the EC50 in test [1] (setting [4]) is over 50 µM; in test [2] (axenic amastigotes in vitro), over 25 µM; in test [3] (setting [5]), over 25 µM.

Take `CCOC(=O)Nc1ccc(Cl)c(-c2nc3ncc(C)cc3[nH]2)c1` [Compound 217]: the values for the EC50 in test [1] (setting [4]), in test [2] (axenic amastigotes in vitro) and in test [3] (setting [5]) were 10.4 µM, 5.9 µM and 0.8 µM, respectively.

As for `Cc1cnc2nc(-c3cc(NC(=O)Cn4cnnn4)ccc3Cl)[nH]c2c1` [Compound 170], the EC50 in test [1] (setting [4]) was over 50 µM; in test [2] (axenic amastigotes in vitro) it was over 25 µM; in test [3] (setting [5]), over 25 µM.

`Cc1cnc2nc(-c3cc(NC(=O)c4cnco4)ccc3Cl)[nH]c2c1` [Compound 177]: the EC50 is over 50 µM in test [1] (setting [4]), 2.28 µM in test [2] (axenic amastigotes in vitro) and 1.66 µM in test [3] (setting [5]).

Turning to `Cc1cnc2nc(-c3cc(NC(=O)c4csc(C)n4)ccc3Cl)[nH]c2c1` [Compound 107], the EC50 turned out to be 21.5 µM in test [1] (setting [4]), 5.5 µM in test [2] (axenic amastigotes in vitro) and 0.51 µM in test [3] (setting [5]).

As to `Cc1cnc2nc(-c3cc(Nc4ccc(Cl)cc4)ccc3Cl)[nH]c2c1` [Example 256, 4-chloro-N-(4-chlorophenyl)-3-{6-methyl-1H-imidazo[4,5-b]pyridin-2-yl}aniline], the EC50 in test [1] (setting [4]) was over 50 µM; in test [2] (axenic amastigotes in vitro) it was over 25 µM; in test [3] (setting [5]) it was over 18.1 µM.

Regarding `COC(=O)Nc1ccc(-c2cnc3nc(-c4cc(NC(=O)c5ccco5)ccc4Cl)oc3c2)cc1` [Compound 417], the figures for the EC50 in test [1] (read-out: L. donavani Macrophage EC50 (μM)), in test [2] (axenic amastigotes in vitro) and in test [3] (setting [5]) were 0.49 µM, 0.212 µM and 0.056 µM, respectively.

In the case of `Cc1ccnc(C(=O)Nc2ccc(Cl)c(-c3nc4ncc(C)cc4[nH]3)c2)c1` [Compound 172], the values for the EC50 in test [1] (setting [4]), in test [2] (axenic amastigotes in vitro) and in test [3] (setting [5]) were 23.7 µM, over 25 µM and over 15.8 µM, respectively.

In the case of `Cc1cnc2nc(-c3cc(NC(=O)Cc4ccc(N(C)C)cc4)ccc3Cl)[nH]c2c1` [Compound 82], the EC50 is over 38.5 µM in test [1] (setting [4]), over 25 µM in test [2] (axenic amastigotes in vitro) and over 14.1 µM in test [3] (setting [5]).

With `Cc1cnc2nc(-c3cc(NC(=O)c4nc(C)cs4)ccc3Cl)[nH]c2c1` [Compound 80], the values for the EC50 in test [1] (setting [4]), in test [2] (axenic amastigotes in vitro) and in test [3] (setting [5]) were 18.5 µM, 5.9 µM and 0.61 µM, respectively.

Turning to `Cc1cnc2nc(-c3cc(NC(=O)NC4CCC4)ccc3Cl)[nH]c2c1` [Example 247, 1-(4-Chloro-3-{6-methyl-1H-imidazo[4,5-b]pyridin-2-yl}phenyl)-3-cyclobutylurea], the figures for the EC50 in test [1] (setting [4]), in test [2] (axenic amastigotes in vitro) and in test [3] (setting [5]) were 26.9 µM, over 25 µM and 6.4 µM, respectively.

Consider `Cc1cnc2nc(-c3cc(NC(=O)OCCF)ccc3Cl)[nH]c2c1` [Example 214, 2-Fluoroethyl N-(4-chloro-3-{6-methyl-1H-imidazo[4,5-b]pyridin-2-yl}phenyl)carbamate], for which the EC50 is 27.5 µM in test [1] (setting [4]), 8.4 µM in test [2] and 2.25 µM in test [3] (48 h).

For `Cc1cnc2nc(-c3cc(NC(=O)c4ccc(-c5cnccn5)cn4)ccc3Cl)[nH]c2c1` [Compound 166], the results for the EC50 in test [1] (setting [4]), in test [2] (axenic amastigotes in vitro) and in test [3] (setting [5]) were over 27.8 µM, over 25 µM and over 25 µM, respectively.

For `Cc1cnc2nc(-c3cc(NC(=O)C4CCc5ccccc5O4)ccc3Cl)[nH]c2c1` (stereo not drawn) [Compound 198], the EC50 was over 28.7 µM in test [1] (setting [4]), over 25 µM in test [2] (axenic amastigotes in vitro) and 8.4 µM in test [3] (setting [5]).

For the compound `Cc1cnc2nc(-c3cc(NC(=O)c4sc(C)nc4C)ccc3Cl)[nH]c2c1` [Compound 191], the 50% effective concentration (EC50) in test [1] (setting [4]) is over 39.1 µM; in test [2] (axenic amastigotes in vitro) it was over 25 µM; in test [3] (setting [5]), over 16.2 µM.

Take `O=C(Nc1ccc(Cl)c(-c2nc3ncc(-c4ccc(OCCN5CCOCC5)nc4)cc3[nH]2)c1)c1ccco1` [Compound 11]: the EC50 was 0.46 µM in test [1] (setting [4]), 0.55 µM in test [2] (axenic amastigotes in vitro) and 0.0064 µM in test [3] (setting [5]).

`Cc1cnc2nc(-c3cc(NC(=O)Cc4ccccc4)ccc3Cl)[nH]c2c1` [Compound 202]: the EC50 in test [1] (setting [4]) was over 50 µM; in test [2] (axenic amastigotes in vitro), over 25 µM; in test [3] (setting [5]), 1.87 µM.

For `Cc1cnc2nc(-c3cc(NC(=O)c4nc(C)oc4C)ccc3Cl)[nH]c2c1` [Compound 179], the values for the EC50 in test [1] (setting [4]), in test [2] (axenic amastigotes in vitro) and in test [3] (setting [5]) were over 50 µM, over 25 µM and 5 µM, respectively.

As to `Cc1cnc2nc(-c3cc(NC(=O)N4CCNC4=O)ccc3Cl)[nH]c2c1` [Compound 246], the EC50 in test [1] (setting [4]) was over 50 µM; in test [2] (axenic amastigotes in vitro) it was over 25 µM; in test [3] (setting [5]), over 25 µM.

In the case of `Cc1cnc2nc(-c3cc(NC(=O)C4CCCC4)ccc3Cl)[nH]c2c1` [Compound 199], the EC50 in test [1] (setting [4]) came out at 21.5 µM; in test [2] (axenic amastigotes in vitro), 23.7 µM; in test [3] (setting [5]), 4.4 µM.

`Cc1cnc2nc(-c3cc(NC(=O)c4cccc5c4OCC5)ccc3Cl)[nH]c2c1` [Compound 180]: the EC50 is 13.2 µM in test [1] (setting [4]), over 25 µM in test [2] (axenic amastigotes in vitro) and 8.3 µM in test [3] (setting [5]).

`Cc1cnc2nc(-c3cc(NC(=O)CCCN(C)C)ccc3Cl)[nH]c2c1` [Compound 159]: the EC50 in test [1] (setting [4]) was over 50 µM; in test [2] (axenic amastigotes in vitro), over 25 µM; in test [3] (setting [5]), over 12.2 µM.

In the case of `Cc1cnc2nc(-c3cc(NC(=O)C(C)(C)NC(=O)OC(C)(C)C)ccc3Cl)[nH]c2c1` [Compound 111], the EC50 in test [1] (setting [4]) is over 50 µM; in test [2] (axenic amastigotes in vitro), over 25 µM; in test [3] (setting [5]), over 13.6 µM.

`CNc1ccc(-c2cnc3nc(-c4cc(NC(=O)c5cscn5)ccc4Cl)[nH]c3c2)cc1` [Compound 349]: the EC50 in test [1] (setting [4]) turned out to be 2.69 µM; in test [2] (axenic amastigotes in vitro), 1.35 µM; in test [3] (setting [5]), 0.171 µM.
